Results as given in patent US5668152A, “Protein kinase C inhibitors” (priority 1995, dated 1997).
pIC50: −log10 of the molar value. Read-outs that look alike come from different tables or passages of the source.

Legend:
[1] = molecular target: protein kinase C delta (Homo sapiens, UniProt Q05655); experiment: biochemical
Protocol: (§1) PKC enzymes=alpha, beta I, beta II, gamma, delta, epsilon, eta and zeta.
(§2) Assay components in a total volume of 250 μL are the following:
(§3) Vesicles consisting of 120 μg/mL phosphatidylserine (Avanti Polar Lipids) and sufficient diacylglycerol (Avanti Polar Lipids) to activate the enzyme to maximum activity in 20 mM HEPES buffer (Sigma, St. Louis, Mo.), pH 7.5, 940 μM calcium chloride (Sigma, St. Louis, Mo.) for assaying the alpha, beta I, beta II and gamma enzyme only, 1 mM EGTA for all the enzymes, 10 mM magnesium chloride (Sigma, St. Louis, Mo.) and 30 μM (gamma-32P) ATP (DuPont). For all the enzymes either histone type HL (Worthington) or myelin basic protein is used as substrate. The assay is started by addition of protein kinase C enzyme incubated at 30° C. for 10 minutes and stopped by adding 0.5 mL of cold trichloroacetic acid (Amresco) followed by 100 μL of 1 mg/mL bovine serum albumin (Sigma, St. Louis, Mo.). The precipitate is collected by vacuum filtration on glass fiber filters employing a TOMTEC™ filtration system and quantified by counting in a beta scintillation counter.

[2] = molecular target: protein kinase C gamma (Homo sapiens, UniProt P05129); experiment: PKC Enzyme assay, gamma isozyme; assay type: biochemical
Protocol: as §1, §2, §3

[3] = molecular target: protein kinase C beta-2 (Homo sapiens, UniProt P05771); experiment: PKC Enzyme assay, beta II isozyme; assay type: biochemical
Protocol: as §1, §2, §3

[4] = molecular target: protein kinase C beta-1 (Homo sapiens, UniProt P05771); experiment: PKC Enzyme assay, beta I isozyme; assay type: biochemical
Protocol: as §1, §2, §3

[5] = molecular target: protein kinase C eta (Homo sapiens, UniProt P24723); experiment: PKC Enzyme assay, eta isozyme; assay type: biochemical
Protocol: as §1, §2, §3

[6] = molecular target: T1, protein kinase C zeta (Homo sapiens, UniProt Q05513); experiment: PKC Enzyme assay, zeta isozyme; assay type: biochemical
T1 sequence (Q05513 1-592): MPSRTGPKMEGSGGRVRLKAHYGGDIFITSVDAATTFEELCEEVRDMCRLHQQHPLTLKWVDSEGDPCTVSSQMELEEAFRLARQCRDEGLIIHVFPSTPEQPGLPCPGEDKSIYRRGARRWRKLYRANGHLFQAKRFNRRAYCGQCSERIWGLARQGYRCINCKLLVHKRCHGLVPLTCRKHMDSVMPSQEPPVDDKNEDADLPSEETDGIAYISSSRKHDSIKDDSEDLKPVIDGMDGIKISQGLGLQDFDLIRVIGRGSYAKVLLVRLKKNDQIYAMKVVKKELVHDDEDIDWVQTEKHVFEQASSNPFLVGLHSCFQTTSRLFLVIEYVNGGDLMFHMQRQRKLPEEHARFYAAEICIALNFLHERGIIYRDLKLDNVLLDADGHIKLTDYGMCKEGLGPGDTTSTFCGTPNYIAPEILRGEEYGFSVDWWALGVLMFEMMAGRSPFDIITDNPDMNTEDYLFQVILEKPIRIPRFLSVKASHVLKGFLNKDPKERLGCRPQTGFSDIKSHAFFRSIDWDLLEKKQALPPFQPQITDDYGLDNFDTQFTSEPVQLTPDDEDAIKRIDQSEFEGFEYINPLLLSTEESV
Protocol: as §1, §2, §3

[7] = molecular target: protein kinase C alpha (Homo sapiens, UniProt P17252); experiment: PKC Enzyme assay, alpha isozyme; assay type: biochemical
Protocol: as §1, §2, §3

[8] = molecular target: T2, protein kinase C epsilon (Homo sapiens, UniProt Q02156); experiment: PKC Enzyme assay, epsilon isozyme; assay type: biochemical
T2 sequence (Q02156 1-737): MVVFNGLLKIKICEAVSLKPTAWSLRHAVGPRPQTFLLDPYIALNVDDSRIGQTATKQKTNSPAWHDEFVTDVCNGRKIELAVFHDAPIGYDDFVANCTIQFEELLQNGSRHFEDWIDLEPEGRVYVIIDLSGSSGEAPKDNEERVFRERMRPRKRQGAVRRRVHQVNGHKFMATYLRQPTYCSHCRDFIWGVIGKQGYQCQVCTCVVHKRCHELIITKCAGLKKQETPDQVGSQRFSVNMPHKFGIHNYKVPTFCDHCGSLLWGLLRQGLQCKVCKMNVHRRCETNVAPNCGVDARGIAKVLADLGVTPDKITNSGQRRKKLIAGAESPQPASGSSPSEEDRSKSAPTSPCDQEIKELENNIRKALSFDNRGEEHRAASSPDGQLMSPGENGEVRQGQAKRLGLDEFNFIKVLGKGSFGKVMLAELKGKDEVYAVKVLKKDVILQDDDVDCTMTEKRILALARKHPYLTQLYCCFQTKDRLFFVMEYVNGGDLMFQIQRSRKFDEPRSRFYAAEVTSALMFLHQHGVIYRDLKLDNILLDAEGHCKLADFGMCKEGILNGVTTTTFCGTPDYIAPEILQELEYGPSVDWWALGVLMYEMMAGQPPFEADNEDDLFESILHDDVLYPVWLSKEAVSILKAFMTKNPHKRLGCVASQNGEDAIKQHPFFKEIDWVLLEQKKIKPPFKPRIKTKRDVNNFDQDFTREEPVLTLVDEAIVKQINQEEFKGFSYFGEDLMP
Protocol: as §1, §2, §3

[9] = PKC delta, 30 μM ATP, 30° C., 10 minutes, read-out: IC50 δ
[10] = PKC gamma, 30 μM ATP, 30° C., 10 minutes, read-out: IC50 γ
[11] = PKC beta-2, 30 μM ATP, 30° C., 10 minutes, read-out: IC50 β2
[12] = PKC beta-1, 30 μM ATP, 30° C., 10 minutes, read-out: IC50 β1
[13] = PKC eta, 30 μM ATP, 30° C., 10 minutes, read-out: IC50 η
[14] = PKC zeta, 30 μM ATP, 30° C., 10 minutes, read-out: IC50 ζ
[15] = PKC alpha, 30 μM ATP, 30° C., 10 minutes, read-out: IC50 α
[16] = PKC epsilon, 30 μM ATP, 30° C., 10 minutes, read-out: IC50 ε

protein kinase C eta, sequence (P24723 whole entry): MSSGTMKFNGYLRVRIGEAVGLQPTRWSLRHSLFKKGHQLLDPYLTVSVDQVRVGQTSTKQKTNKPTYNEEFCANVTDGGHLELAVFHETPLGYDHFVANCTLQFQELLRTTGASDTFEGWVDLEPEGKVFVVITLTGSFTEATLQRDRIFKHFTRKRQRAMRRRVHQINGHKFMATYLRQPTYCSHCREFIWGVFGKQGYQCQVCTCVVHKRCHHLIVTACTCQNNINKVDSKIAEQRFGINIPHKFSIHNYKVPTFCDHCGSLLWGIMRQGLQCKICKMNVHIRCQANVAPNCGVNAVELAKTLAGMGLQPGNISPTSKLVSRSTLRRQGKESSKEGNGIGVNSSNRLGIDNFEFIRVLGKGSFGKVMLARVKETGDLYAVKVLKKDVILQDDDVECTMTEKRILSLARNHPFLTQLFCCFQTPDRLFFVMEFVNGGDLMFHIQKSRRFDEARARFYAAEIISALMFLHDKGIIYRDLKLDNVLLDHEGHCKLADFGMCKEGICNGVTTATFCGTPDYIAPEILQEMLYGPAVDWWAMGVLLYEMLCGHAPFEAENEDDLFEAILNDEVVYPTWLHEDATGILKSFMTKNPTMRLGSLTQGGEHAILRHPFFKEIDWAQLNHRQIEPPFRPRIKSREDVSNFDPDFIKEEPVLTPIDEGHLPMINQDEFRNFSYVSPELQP
protein kinase C delta, sequence (Q05655 whole entry): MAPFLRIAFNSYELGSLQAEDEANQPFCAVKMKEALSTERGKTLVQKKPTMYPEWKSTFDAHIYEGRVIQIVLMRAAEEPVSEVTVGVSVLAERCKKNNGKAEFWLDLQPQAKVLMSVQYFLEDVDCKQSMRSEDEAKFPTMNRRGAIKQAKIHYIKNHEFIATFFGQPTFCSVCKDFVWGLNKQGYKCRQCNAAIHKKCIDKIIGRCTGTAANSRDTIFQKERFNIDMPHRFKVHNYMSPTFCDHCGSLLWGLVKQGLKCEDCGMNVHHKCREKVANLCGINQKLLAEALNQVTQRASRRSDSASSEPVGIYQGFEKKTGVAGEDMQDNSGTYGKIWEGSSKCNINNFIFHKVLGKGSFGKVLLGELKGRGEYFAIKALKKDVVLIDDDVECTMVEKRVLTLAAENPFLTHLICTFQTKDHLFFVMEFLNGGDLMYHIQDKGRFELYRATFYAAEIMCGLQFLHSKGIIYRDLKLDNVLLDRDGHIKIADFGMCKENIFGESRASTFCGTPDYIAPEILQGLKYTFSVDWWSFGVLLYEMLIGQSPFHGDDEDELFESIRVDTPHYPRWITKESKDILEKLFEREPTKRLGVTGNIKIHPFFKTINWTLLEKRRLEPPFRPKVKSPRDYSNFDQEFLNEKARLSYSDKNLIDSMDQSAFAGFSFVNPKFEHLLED
protein kinase C beta-1, sequence (P05771 whole entry): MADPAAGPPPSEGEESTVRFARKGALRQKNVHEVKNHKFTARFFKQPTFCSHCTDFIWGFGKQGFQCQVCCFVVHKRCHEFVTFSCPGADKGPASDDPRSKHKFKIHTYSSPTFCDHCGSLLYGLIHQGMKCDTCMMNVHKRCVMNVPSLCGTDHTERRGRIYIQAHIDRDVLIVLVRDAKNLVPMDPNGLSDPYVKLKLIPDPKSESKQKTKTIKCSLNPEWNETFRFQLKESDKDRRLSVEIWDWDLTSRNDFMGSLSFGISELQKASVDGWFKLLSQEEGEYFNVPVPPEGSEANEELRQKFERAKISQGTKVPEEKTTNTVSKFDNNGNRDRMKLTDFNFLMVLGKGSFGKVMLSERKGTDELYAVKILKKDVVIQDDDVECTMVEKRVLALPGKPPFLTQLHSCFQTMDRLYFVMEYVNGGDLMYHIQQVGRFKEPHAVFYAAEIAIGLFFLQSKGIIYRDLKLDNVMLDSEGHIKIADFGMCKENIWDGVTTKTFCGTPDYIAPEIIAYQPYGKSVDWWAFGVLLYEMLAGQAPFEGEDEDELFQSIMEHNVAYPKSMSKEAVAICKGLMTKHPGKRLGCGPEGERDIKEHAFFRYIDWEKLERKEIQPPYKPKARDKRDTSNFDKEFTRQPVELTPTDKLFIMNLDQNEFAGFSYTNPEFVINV
protein kinase C beta-2, sequence (P05771 1-673 isoform P05771-2): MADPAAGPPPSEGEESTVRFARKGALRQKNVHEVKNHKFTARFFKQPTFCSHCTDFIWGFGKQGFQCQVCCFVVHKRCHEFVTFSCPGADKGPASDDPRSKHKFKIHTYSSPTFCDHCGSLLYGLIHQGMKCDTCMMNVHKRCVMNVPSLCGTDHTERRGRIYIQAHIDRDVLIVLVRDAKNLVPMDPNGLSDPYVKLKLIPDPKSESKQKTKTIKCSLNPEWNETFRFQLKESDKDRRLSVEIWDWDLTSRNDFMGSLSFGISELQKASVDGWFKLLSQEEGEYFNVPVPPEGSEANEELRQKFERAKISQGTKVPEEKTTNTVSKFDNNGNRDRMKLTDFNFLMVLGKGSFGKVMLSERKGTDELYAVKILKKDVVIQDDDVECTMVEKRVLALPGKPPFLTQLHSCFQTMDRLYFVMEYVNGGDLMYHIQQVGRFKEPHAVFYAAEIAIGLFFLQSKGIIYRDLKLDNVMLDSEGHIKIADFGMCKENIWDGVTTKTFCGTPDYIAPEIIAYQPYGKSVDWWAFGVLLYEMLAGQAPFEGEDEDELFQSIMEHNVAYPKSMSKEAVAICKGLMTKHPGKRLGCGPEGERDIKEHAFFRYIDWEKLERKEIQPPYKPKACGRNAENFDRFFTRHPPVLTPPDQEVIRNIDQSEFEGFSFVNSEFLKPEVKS

| SMILES | pIC50 [1, 9] | pIC50 [2, 10] | pIC50 [3, 11] | pIC50 [4, 12] | pIC50 [5, 13] | pIC50 [6, 14] | pIC50 [7, 15] | pIC50 [8, 16] | pIC50 [1] | pIC50 [2] | pIC50 [3] | pIC50 [4] | pIC50 [5] | pIC50 [6] | pIC50 [7] | pIC50 [8] |
| --- | --- | --- | --- | --- | --- | --- | --- | --- | --- | --- | --- | --- | --- | --- | --- | --- |
| O=C1NC(=O)C(c2cn(CCCO)c3ccccc23)=C1c1c[nH]c2ccccc12 [Example 11] | 6.39 | 5.96 | 7.34 | 7.41 | 7.00 | 4.80 | 6.35 | 6.17 |  |  |  |  |  |  |  |  |
| Cn1cc(C2=C(c3c[nH]c4ccccc34)C(=O)NC2=O)c2ccccc21 [Example 12] | 6.00 | 5.90 | 7.07 | 7.09 | 6.28 | 5.10 | 5.92 | 6.05 |  |  |  |  |  |  |  |  |
| O=C1NC(=O)C(c2cn(Cc3ccccc3)c3ccccc23)=C1c1c[nH]c2ccccc12 [Example 14] | 5.06 | 4.60 | 5.94 | 5.94 | 5.35 | 4.47 | 4.87 | 4.52 |  |  |  |  |  |  |  |  |
| Cc1c(C2=C(c3cn(CN(C)C)c4ccccc34)C(=O)NC2=O)c2ccccc2n1CCCN(C)C [Example 15] | 5.47 | 5.40 | 7.00 | 6.85 | 5.89 | 4.43 | 5.31 | 5.26 |  |  |  |  |  |  |  |  |
| Cc1c(C2=C(c3c(C)n(CN(C)C)c4ccccc34)C(=O)NC2=O)c2ccccc2n1CCCN(C)C [Example 16] | 5.10 | 5.04 | 6.22 | 6.15 | 5.25 | 4.40 | 4.41 | 5.00 |  |  |  |  |  |  |  |  |
| CC(=O)N1CCC(n2cc(C3=C(c4cn(C)c5ccccc45)C(=O)NC3=O)c3ccccc32)CC1 [Example 37, 3-(1-(1-Acetyl-piperidin-4-yl]-indol-3-yl)-4-(1-methyl-indol-3-yl)-pyrrole-2,5-dione] | 6.40 | 6.00 | 7.70 | 8.05 | 7.00 | 4.70 | 6.52 | 6.40 |  |  |  |  |  |  |  |  |
| CCOC(=O)CN1CCC(n2cc(C3=C(c4cn(C)c5ccccc45)C(=O)NC3=O)c3ccccc32)CC1 [Example 38] | 5.52 | 5.30 | 7.30 | 7.30 | 5.70 | < 4.00 | 6.00 | 6.40 |  |  |  |  |  |  |  |  |
| Cn1cc(C2=C(c3cn(C4CCN(CC5CC5)CC4)c4ccccc34)C(=O)NC2=O)c2ccccc21 [Example 39, 3-[1-N-(1-N-(Cyclopropylmethylene)-piperidin-4-yl)-indol-3-yl]-4-(1-N-(methyl)-indol-3-yl)-1H-pyrrole-2,5-dione] | 6.40 | 6.40 | 8.00 | 7.52 | 7.30 | 5.05 | 6.52 | 6.05 |  |  |  |  |  |  |  |  |
| CN(C)CCCN1CCC(n2cc(C3=C(c4cn(C)c5ccccc45)C(=O)NC3=O)c3ccccc32)CC1 [Example 41, 3-{1-[1-N-(3-N,N-(Dimethylamino)propyl)-piperidin-4-yl]-indol-3-yl}-4-(1-methyl-indol-3-yl)-1H-pyrrole-2,5-dione] | 5.40 | 5.40 | 7.00 | 6.70 | 5.70 | 4.82 | 5.52 | 6.00 |  |  |  |  |  |  |  |  |
| CN1CCC(n2cc(C3=C(c4cn(C)c5ccccc45)C(=O)NC3=O)c3ccccc32)CC1 [Example 42, 3-[1-(1-Methyl-piperidin-4-yl)-indol-3-yl]-4-(1-methyl-indol-3-yl)-1H-pyrrole-2,5-dione] | 6.40 | 6.30 | 8.00 | 7.70 | 7.30 | 5.40 | 6.40 | 6.40 |  |  |  |  |  |  |  |  |
| Cn1cc(C2=C(c3cn(C4CCN(C(=N)N)CC4)c4ccccc34)C(=O)NC2=O)c2ccccc21 [Example 44, 3-[1-(1-carboxamidine-piperidin-4-yl)-indol-3-yl)-4-(1-methyl-indol-3-yl)-1-pyrrole-2,5-dione] | 7.00 | 7.09 | 8.30 | 8.30 | 8.30 | 5.32 | 7.38 | 6.44 |  |  |  |  |  |  |  |  |
| Cn1cc(C2=C(c3cn(C4CCN(CC(F)(F)C(F)(F)C(F)(F)F)CC4)c4ccccc34)C(=O)NC2=O)c2ccccc21 [Example 46, 3-{1-[1-(2,2,3,3,4,4,4-Heptafluoro-butyl)-piperidin-4-yl]-indol-3-yl}-4-(1-methyl-indol-3-yl)-1H-pyrrole-2,5-dione] |  |  |  |  |  |  |  |  | < 4.00 | < 4.00 | 6.34 | 5.52 | < 4.00 | < 4.00 | < 4.00 | < 4.00 |
| Cn1cc(C2=C(c3cn(C4CCN(Cc5ccccc5)CC4)c4ccccc34)C(=O)NC2=O)c2ccccc21 [Example 47] |  |  | 7.30 |  | 6.30 |  |  |  | 5.70 | 5.40 |  | 7.00 |  | 4.28 | 6.00 | 5.52 |
| Cn1cc(C2=C(c3cn(C4CCN(c5ccccn5)CC4)c4ccccc34)C(=O)NC2=O)c2ccccc21 [Example 48] | 5.70 | 5.30 | 7.40 | 7.30 | 5.70 | < 4.00 | 5.70 | 5.70 |  |  |  |  |  |  |  |  |
| O=C1NC(=O)C(c2cn(C3CCNCC3)c3ccccc23)=C1c1c[nH]c2ccccc12 [Example 50] | 6.30 | 6.22 | 7.70 | 7.52 | 7.00 | 5.52 | 6.52 | 6.30 |  |  |  |  |  |  |  |  |
| CN1CCC(n2cc(C3=C(c4c[nH]c5ccccc45)C(=O)NC3=O)c3ccccc32)CC1 [Example 51] | 6.40 | 6.30 | 8.00 | 7.70 | 7.40 | 5.30 | 6.70 | 7.30 |  |  |  |  |  |  |  |  |
| Cn1cc(C2=C(c3cn(CCCCOC4CC(O)C(CN)O4)c4ccccc34)C(=O)NC2=O)c2ccccc21 (stereo not shown) [Example 53] | 5.46 | 5.37 | 6.64 | 6.39 | 5.77 | 4.29 | 5.49 | 5.18 |  |  |  |  |  |  |  |  |
